Activity and inhibition data for 17 compounds are collected here from ChEMBL document CHEMBL6127094, “Discovery of non-antiproliferative selective estrogen receptor degraders (SERDs) based on scaffold optimization of elacestrant” (Eur J Med Chem, 2024).

Calls of active or inactive are those of the source. The calls are words filed in the database; no cut-off is given here.

In test [1] the test system is MCF7. Description: Antiproliferative activity against human MCF7 cells assessed as reduction in cell viability at 5 to 100 uM incubated for 120 hrs by MTT assay relative to fulvestrant/elacestrant. It is filed as functional, cell-based. To be noted: dose 5-100 µM. (In general: Tetrazolium assays rely on reduction of a dye to a coloured formazan, in cell work by metabolically active cells.)

In test [2] the target is T1, Estrogen receptor (Homo sapiens) (UniProt P03372).
T1 sequence (whole entry): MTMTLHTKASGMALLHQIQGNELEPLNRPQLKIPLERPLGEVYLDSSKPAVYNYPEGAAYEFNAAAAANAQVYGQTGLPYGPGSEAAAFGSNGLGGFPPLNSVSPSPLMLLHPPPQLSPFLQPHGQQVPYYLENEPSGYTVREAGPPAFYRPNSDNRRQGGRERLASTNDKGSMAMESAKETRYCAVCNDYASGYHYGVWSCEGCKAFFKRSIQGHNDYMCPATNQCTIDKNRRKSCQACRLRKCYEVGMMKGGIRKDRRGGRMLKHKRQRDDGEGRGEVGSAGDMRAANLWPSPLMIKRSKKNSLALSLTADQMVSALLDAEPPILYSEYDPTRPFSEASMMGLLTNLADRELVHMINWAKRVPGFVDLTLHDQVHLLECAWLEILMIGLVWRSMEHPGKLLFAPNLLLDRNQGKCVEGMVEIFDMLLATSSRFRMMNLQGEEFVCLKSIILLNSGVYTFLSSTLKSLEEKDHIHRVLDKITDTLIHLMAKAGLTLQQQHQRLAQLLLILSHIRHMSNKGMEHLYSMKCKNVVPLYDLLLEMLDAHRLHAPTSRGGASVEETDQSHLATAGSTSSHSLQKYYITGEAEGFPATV
Description: Induction of selective estrogen receptor degradation (SERD) in human T47D cells at 5 uM incubated for 24 hrs by Western blot analysis. It is filed as cell-based. In general terms: Immunoblotting shows a protein as a band on a membrane.

Test [3] concerns the target T1, Estrogen receptor (Homo sapiens). Description: Induction of selective estrogen receptor degradation (SERD) in human MCF7 cells assessed as decrease in TFF1 mRNA expression level at 1 to 10 uM incubated for 24 hrs in presence of E2 (estrogen) by RT-qPCR analysis. In kind it is cell-based. To be noted: dose 1-10 µM. Background: In qPCR the cycle at which signal appears reflects the starting amount.

Test [4] has the same target. Description: Induction of selective estrogen receptor degradation (SERD) in human MCF7 cells assessed as decrease in CCND1 mRNA expression level at 1 uM incubated for 24 hrs by RT-qPCR analysis. It is filed as cell-based.
The next test deals with T47D. The test can be described thus: Antiproliferative activity against human T47D cells assessed as reduction in cell viability at 1 to 10 uM incubated for 120 hrs by MTT assay. In kind it is functional, cell-based. To be noted: dose 1-10 µM.
The target in test [5] is T1, Estrogen receptor (Homo sapiens). Description: Induction of selective estrogen receptor degradation (SERD) in human MCF7 cells assessed as decrease in CCND1 mRNA expression level at 1 to 10 uM incubated for 24 hrs in presence of E2 (estrogen) by RT-qPCR analysis. In kind it is cell-based. The conditions noted are these: dose 1-10 µM.
Test [6] has the same target. The test can be described thus: Induction of selective estrogen receptor degradation (SERD) in human MCF7 cells at 5 uM incubated for 24 hrs by Western blot analysis. It is filed as cell-based.
For test [7] the target is unchanged. The test can be described thus: Induction of selective estrogen receptor degradation (SERD) in human MCF7 cells assessed as decrease in TFF1 mRNA expression level at 1 uM incubated for 24 hrs by RT-qPCR analysis. It is filed as cell-based.
The test system of test [8] is MCF7. Description: Inhibition of ERE signaling in human MCF7 cells transfected with 3X ERE TATA luciferase plasmid assessed as estrogen response element transcription at 10 uM incubated for 24 hrs by luminescence based analysis relative to elacestrant. It is filed as functional, cell-based.
Test [9] concerns the target T1, Estrogen receptor (Homo sapiens). The test can be described thus: Induction of selective estrogen receptor degradation (SERD) in human MCF7 cells assessed as decrease in GREB1 mRNA expression level incubated for 24 hrs in presence of E2 (estrogen) by RT-qPCR analysis. It is filed as cell-based.
Test [10] shares this target. The test can be described thus: Induction of selective estrogen receptor degradation (SERD) in human MCF7 cells assessed as decrease in TFF1 mRNA expression level incubated for 24 hrs in presence of E2 (estrogen) by RT-qPCR analysis. In kind it is cell-based.

As to `CCN(Cc1ccc(OCCN2CCCCCC2)cc1)c1cc(C(F)(F)F)ccc1N1CCc2cc(O)ccc2C1`, the outcome in the test with MCF7 [1] was inactive. Consider `CCN(Cc1ccc(OCCN2CCCC2)cc1)c1cc(C(F)(F)F)ccc1N1CCc2cc(O)ccc2C1`, for which the result with MCF7 [1] was inactive. Same read-out and setting: under `CCN(Cc1ccc(OCCN2CCCC2)cc1)c1cc(C)ccc1N1CCc2cc(O)ccc2C1` stands “inactive”. On to `CCN(Cc1ccc(OCCN2CCCC2)cc1)c1cc(F)ccc1N1CCc2cc(O)ccc2C1`, for which, in the test with MCF7 [1], the outcome was inactive. Take `CCN(Cc1ccc(/C=C/C(=O)O)cc1)c1cc(F)ccc1N1CCc2cc(O)ccc2C1`: the outcome in the test with MCF7 [1] was inactive. Turning to `CCN(C(=O)c1ccc(OCCN2CCCC2)cc1)c1cc(C(F)(F)F)ccc1N1CCc2cc(O)ccc2C1`, in the test with MCF7 [1], the result was inactive. In the case of `CCN(Cc1ccc(OCCN2CCCCCC2)cc1)c1cc(F)ccc1N1CCc2cc(O)ccc2C1`, the result with MCF7 [1] was inactive.

Consider `CCN(C(=O)c1ccc(OCCN2CCCC2)cc1)c1ccccc1N1CCc2cc(O)ccc2C1`, for which, in the test with MCF7 [1], the outcome was inactive. Turning to `CCN(Cc1ccc(/C=C/C(=O)O)cc1)c1ccccc1N1CCc2cc(O)ccc2C1`, in the test on MCF7 [1], the result was inactive. Regarding `CCN(C(=O)c1ccc(OCCN2CCCC2)cc1)c1cc(C)ccc1N1CCc2cc(O)ccc2C1`, the result with MCF7 [1] was inactive. With `CCN(Cc1ccc(/C=C/C(=O)O)cc1)c1cc(C(F)(F)F)ccc1N1CCc2cc(O)ccc2C1`, the outcome in test [2], in test [3], in [4], in [5], in test [6] and in test [7] was Active. Besides, the result in the test with T47D and in the test with MCF7 [1] was inactive. For the same compound, the inhibition entry in the test on MCF7 [8] was “inactive”.

For `CCN(Cc1ccc(OCCN2CCCC2)cc1)c1ccccc1N1CCc2cc(O)ccc2C1`, the result with MCF7 [1] was inactive. As to `CCN(Cc1ccc(OCCN2CCCCCC2)cc1)c1cc(C)ccc1N1CCc2cc(O)ccc2C1`, the outcome in the test with MCF7 [1] was inactive. On the same count and under the same terms, to `CCN(C(=O)c1ccc(OCCN2CCCC2)cc1)c1cc(F)ccc1N1CCc2cc(O)ccc2C1` belongs “inactive”. For the compound `CCNCCc1ccc(CN(CC)c2cc(OC)ccc2[C@@H]2CCc3cc(O)ccc3C2)cc1`, the outcome in test [9] and in [10] was Active. As for `CCN(Cc1ccc(OCCN2CCCCCC2)cc1)c1ccccc1N1CCc2cc(O)ccc2C1`, the outcome in the test on MCF7 [1] was inactive.

Consider `CCN(Cc1ccc(/C=C/C(=O)O)cc1)c1cc(C)ccc1N1CCc2cc(O)ccc2C1`, for which the outcome with MCF7 [1] was inactive.
